Activity calls are given as the source filed them. No cut-off for these calls is given here.
Legend:
Cannabinoid receptor 1 [1] = target: T1, Cannabinoid receptor 1 (Homo sapiens, UniProt P21554); experiment: biochemical; type: cell-based, HEK293
Cannabinoid receptor 1 [2] = target: T1, Cannabinoid receptor 1; conditions: CHO
[3] = target: Cannabinoid receptor 1 (Rattus norvegicus) (UniProt P20272); experiment: Antagonist activity at rat brain CB1 receptor assessed as inhibition of [35S]GTPgammaS binding at 10000 nM; type: functional
Cannabinoid receptor 1 [4] = target: T1, Cannabinoid receptor 1; experiment: Displacement of [3H]CP55940 from human CB1 receptor expressed in HEK293 cells; type: cell-based
Cannabinoid receptor 1 [5] = target: T1, Cannabinoid receptor 1; experiment: Antagonist activity at human brain CB1 receptor by calcium mobilization assay; type: functional; conditions: read-out: pA2 (converted)
Cannabinoid receptor 2 = Cannabinoid receptor 2 (Homo sapiens, UniProt P34972); experiment: Displacement of [3H]CP55940 from human CB2 receptor expressed in CHOK1 cells; type: cell-based, CHO-K1
Cannabinoid receptor 1 [6] = target: Cannabinoid receptor 1 (Rattus norvegicus, UniProt P20272); experiment: Antagonist activity at rat brain CB1 receptor assessed as inhibition of [35S]GTPgammaS binding; type: functional
Cannabinoid receptor 1 [7] = target: T1, Cannabinoid receptor 1; experiment: Antagonist activity at human brain CB1 receptor assessed as inhibition for [35S]GTPgammaS binding; type: functional
Cannabinoid receptor 1 [8] = target: T1, Cannabinoid receptor 1; experiment: Antagonist activity at human brain CB1 receptor assessed as inhibition for [35S]GTPgammaS binding at 10000 nM; type: functional
Mus musculus = experiment: Inhibition of compound 21-induced antinociception in mouse at 10 mg/kg, ip administered 30 mins before compound-21 dosing by tail flick latency test

T1 sequence (P21554 whole entry): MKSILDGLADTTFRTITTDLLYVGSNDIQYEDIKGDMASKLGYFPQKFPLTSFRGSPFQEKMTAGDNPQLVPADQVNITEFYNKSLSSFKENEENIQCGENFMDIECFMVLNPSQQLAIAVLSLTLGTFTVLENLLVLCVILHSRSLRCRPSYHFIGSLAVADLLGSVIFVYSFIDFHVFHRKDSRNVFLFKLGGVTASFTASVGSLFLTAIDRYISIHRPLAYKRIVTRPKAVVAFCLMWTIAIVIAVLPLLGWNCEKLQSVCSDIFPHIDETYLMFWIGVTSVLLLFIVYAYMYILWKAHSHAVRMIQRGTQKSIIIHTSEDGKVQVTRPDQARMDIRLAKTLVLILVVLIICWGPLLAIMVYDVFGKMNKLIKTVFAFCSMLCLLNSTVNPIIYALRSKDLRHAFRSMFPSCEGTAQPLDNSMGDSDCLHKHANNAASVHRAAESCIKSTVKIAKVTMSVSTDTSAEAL
Cannabinoid receptor 2, sequence (P34972 whole entry): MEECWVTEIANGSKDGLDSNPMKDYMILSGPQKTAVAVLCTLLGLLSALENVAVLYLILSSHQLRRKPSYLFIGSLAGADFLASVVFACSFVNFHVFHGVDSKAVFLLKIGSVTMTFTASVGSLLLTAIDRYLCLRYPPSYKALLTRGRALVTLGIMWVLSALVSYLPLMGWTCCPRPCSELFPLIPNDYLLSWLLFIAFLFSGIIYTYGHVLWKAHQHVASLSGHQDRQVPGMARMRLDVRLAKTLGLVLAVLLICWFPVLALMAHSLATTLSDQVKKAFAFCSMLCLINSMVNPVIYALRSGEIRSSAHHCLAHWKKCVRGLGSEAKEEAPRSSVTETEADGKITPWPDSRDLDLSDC
Cannabinoid receptor 1 (Rattus norvegicus), sequence (P20272 whole entry): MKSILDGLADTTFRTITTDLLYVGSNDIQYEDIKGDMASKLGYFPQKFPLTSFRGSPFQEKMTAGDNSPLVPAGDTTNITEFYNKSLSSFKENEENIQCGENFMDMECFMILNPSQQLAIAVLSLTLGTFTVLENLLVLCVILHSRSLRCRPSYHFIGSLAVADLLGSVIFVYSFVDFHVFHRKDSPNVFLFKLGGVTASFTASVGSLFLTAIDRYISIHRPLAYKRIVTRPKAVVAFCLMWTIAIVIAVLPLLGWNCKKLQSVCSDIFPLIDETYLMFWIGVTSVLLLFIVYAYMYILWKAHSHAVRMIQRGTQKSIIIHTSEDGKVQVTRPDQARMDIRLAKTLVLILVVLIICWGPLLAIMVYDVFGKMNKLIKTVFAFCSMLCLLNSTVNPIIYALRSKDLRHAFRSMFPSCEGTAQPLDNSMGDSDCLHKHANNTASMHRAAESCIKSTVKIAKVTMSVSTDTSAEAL
Cannabinoid receptor 1 (Rattus norvegicus, UniProt P20272), sequence (P20272 whole entry): as above

Structure (SMILES) | Ki (Cannabinoid receptor 1 [1]) | Ke (Cannabinoid receptor 1 [2]) | Emax [3] | Ki (Cannabinoid receptor 1 [4]) | Kb (Cannabinoid receptor 1 [5]) | Ki (Cannabinoid receptor 2) | EC50 (Cannabinoid receptor 1 [6]) | EC50 (Cannabinoid receptor 1 [7]) | Emax (Cannabinoid receptor 1 [8]) | inhibition (Mus musculus)
Cc1c(C(=O)NCCCCCCCCCCCNCCCCCCCCCCCNC(=O)c2nn(-c3ccc(Cl)cc3Cl)c(-c3ccc(Cl)cc3)c2C)nn(-c2ccc(Cl)cc2Cl)c1-c1ccc(Cl)cc1 | 0.037 µM | > 10000 nM | -12.2% | 0.0993 µM | 0.0275 µM | > 2.5 µM | > 10 µM | > 25 µM | – | –
Cc1c(C(=O)NCCCNCCCN)nn(-c2ccc(Cl)cc2Cl)c1-c1ccc(Cl)cc1 | > 2.5 µM | inactive | -34.8% | > 2.5 µM | – | > 2.5 µM | > 10 µM | – | – | –
Cc1c(C(=O)NCCCCCCCCCN(C)CCCCCCCCCN)nn(-c2ccc(Cl)cc2Cl)c1-c1ccc(Cl)cc1 | 0.00612 µM | 141 nM | -67.9% | 0.01 µM | 0.00457 µM | 0.265 µM | 3.4 µM | – | – | –
Cc1c(C(=O)NCCCCCN(C)CCCCCN)nn(-c2ccc(Cl)cc2Cl)c1-c1ccc(Cl)cc1 | 0.0888 µM | 2870 nM | -53.3% | 0.162 µM | 0.309 µM | – | 3.04 µM | – | – | –
Cc1c(C(=O)NCCCCCNCCCCCN)nn(-c2ccc(Cl)cc2Cl)c1-c1ccc(Cl)cc1 | 0.23 µM | 5400 nM | -40.7% | 0.349 µM | 0.759 µM | > 2.5 µM | 2.22 µM | – | – | –
Cc1c(C(=O)NCCCCCN(C)CCCCCNC(=O)c2nn(-c3ccc(Cl)cc3Cl)c(-c3ccc(Cl)cc3)c2C)nn(-c2ccc(Cl)cc2Cl)c1-c1ccc(Cl)cc1 | 0.00635 µM | 108 nM | -3.8% | 0.0387 µM | 0.011 µM | 1.04 µM | 0.00178 µM | 0.0598 µM | -13.1% | –
Cc1c(C(=O)NCCCCCCCCCCCN(C)CCCCCCCCCCCN)nn(-c2ccc(Cl)cc2Cl)c1-c1ccc(Cl)cc1 | 0.00551 µM | 206 nM | -49.3% | 0.0147 µM | 0.0234 µM | 0.426 µM | 8.77 µM | – | – | –
Cc1c(C(=O)NCCCCCCCCCNCCCCCCCCCNC(=O)c2nn(-c3ccc(Cl)cc3Cl)c(-c3ccc(Cl)cc3)c2C)nn(-c2ccc(Cl)cc2Cl)c1-c1ccc(Cl)cc1 | 0.0574 µM | 4160 nM | 10.4% | 0.0541 µM | 0.0174 µM | > 2.5 µM | 0.00134 µM | 0.0279 µM | 6.5% | –
Cc1c(C(=O)NCCCCCCCCCN(C)CCCCCCCCCNC(=O)c2nn(-c3ccc(Cl)cc3Cl)c(-c3ccc(Cl)cc3)c2C)nn(-c2ccc(Cl)cc2Cl)c1-c1ccc(Cl)cc1 | 0.0941 µM | inactive | – | 0.247 µM | 0.0295 µM | – | > 10 µM | 0.161 µM | -23% | –
Cc1c(C(=O)NCCCCCCCNCCCCCCCN)nn(-c2ccc(Cl)cc2Cl)c1-c1ccc(Cl)cc1 | 0.0195 µM | 503 nM | -52.8% | 0.0467 µM | 0.0204 µM | 0.622 µM | 3.28 µM | – | – | inactive
Cc1c(C(=O)NCCCCCCCCCNCCCCCCCCCN)nn(-c2ccc(Cl)cc2Cl)c1-c1ccc(Cl)cc1 | 0.00544 µM | 31.6 nM | -65.2% | 0.014 µM | 0.00562 µM | 0.419 µM | 2.39 µM | – | – | –
Cc1c(C(=O)NCCCCCCCCCCCNCCCCCCCCCCCN)nn(-c2ccc(Cl)cc2Cl)c1-c1ccc(Cl)cc1 | 0.0023 µM | 146 nM | -29.2% | 0.00456 µM | 0.00316 µM | 0.305 µM | 3.62 µM | – | – | –
Cc1c(C(=O)NCCCCCCCNCCCCCCCNC(=O)c2nn(-c3ccc(Cl)cc3Cl)c(-c3ccc(Cl)cc3)c2C)nn(-c2ccc(Cl)cc2Cl)c1-c1ccc(Cl)cc1 | 0.00441 µM | 567 nM | -25% | 0.0123 µM | 0.00832 µM | 0.553 µM | 1.19 µM | 0.179 µM | -38.8% | inactive
Cc1c(C(=O)NCCCCCCCN(C)CCCCCCCN)nn(-c2ccc(Cl)cc2Cl)c1-c1ccc(Cl)cc1 | 0.0155 µM | 220 nM | -62% | 0.0375 µM | 0.0219 µM | 1.93 µM | 4.37 µM | – | – | Active
Cc1c(C(=O)NCCNCCNC(=O)c2nn(-c3ccc(Cl)cc3Cl)c(-c3ccc(Cl)cc3)c2C)nn(-c2ccc(Cl)cc2Cl)c1-c1ccc(Cl)cc1 | 0.094 µM | 2700 nM | -35.9% | 0.229 µM | 0.0832 µM | 1.28 µM | > 10 µM | 0.237 µM | -25.5% | –
Cc1c(C(=O)NCCCCCCCCCCCN(C)CCCCCCCCCCCNC(=O)c2nn(-c3ccc(Cl)cc3Cl)c(-c3ccc(Cl)cc3)c2C)nn(-c2ccc(Cl)cc2Cl)c1-c1ccc(Cl)cc1 | 1.29 µM | inactive | 17.3% | 1.89 µM | 0.501 µM | – | 0.0293 µM | > 25 µM | – | –
Cc1c(C(=O)NCCCCCCCN(C)CCCCCCCNC(=O)c2nn(-c3ccc(Cl)cc3Cl)c(-c3ccc(Cl)cc3)c2C)nn(-c2ccc(Cl)cc2Cl)c1-c1ccc(Cl)cc1 | 0.0275 µM | 478 nM | -40.8% | 0.0173 µM | 0.00427 µM | – | 1.46 µM | 2.24 µM | -32.7% | Active
Cc1c(C(=O)NCCNCCN)nn(-c2ccc(Cl)cc2Cl)c1-c1ccc(Cl)cc1 | 0.506 µM | inactive | -22.9% | 1.23 µM | – | > 2.5 µM | 7.24 µM | – | – | –
Cc1c(C(=O)NCCCCCNCCCCCNC(=O)c2nn(-c3ccc(Cl)cc3Cl)c(-c3ccc(Cl)cc3)c2C)nn(-c2ccc(Cl)cc2Cl)c1-c1ccc(Cl)cc1 | 0.0304 µM | 476 nM | -29.6% | 0.0681 µM | 0.0295 µM | 0.451 µM | > 10 µM | 0.033 µM | 8.5% | –
Cc1c(C(=O)NCCCNCCCNC(=O)c2nn(-c3ccc(Cl)cc3Cl)c(-c3ccc(Cl)cc3)c2C)nn(-c2ccc(Cl)cc2Cl)c1-c1ccc(Cl)cc1 | 0.0419 µM | 1300 nM | -37.2% | 0.174 µM | 0.0389 µM | 0.496 µM | 0.718 µM | 0.0842 µM | -31.9% | –
